Assay results taken from paper PMC8453901, “GLPG1205, a GPR84 Modulator: Safety, Pharmacokinetics, and Pharmacodynamics in Healthy Subjects” (Clinical Pharmacology in Drug Development, 2021).

Test: Safety and tolerability, study 2
Format: in vivo, human
Procedure: Safety and tolerability were assessed on the basis of adverse events (AEs), which were monitored throughout both studies. Additional safety assessments included vital signs (including supine [and standing in study 2] heart rate, systolic and diastolic blood pressure, and oral body temperature), 12‐lead electrocardiogram (ECG), clinical laboratory tests (hematology, coagulation [study 2 only], serum/plasma chemistry, urinalysis, urine drug screen, serology, and alcohol breath test), and a comprehensive physical examination. In the SAD part of study 1, clinical laboratory tests, physical examination, and vital signs were assessed at the screening visit, at the time of dosing (0 hours after dose), 24 hours after dosing and at follow‐up (7 to 10 days after the final dose). Vital signs were additionally observed 2 hours after dosing, and the 12‐lead ECG was additionally completed at 1, 2, 6, 8, and 12 hours after dosing. In the MAD part of study 1, all additional safety assessments were performed at screening; days 1, 2, 8, 14, and 15; and at follow‐up. In study 2, additional safety assessments were performed at screening (between 21 and 2 days before the first study drug administration); days 1, 2, 5, 10, 14, 15, and 20 (clinical laboratory tests were not performed on day 20); at early discontinuation; and at follow‐up. For study 2, renal function tests (measurement of estimated creatinine clearance rate using the Cockcroft‐Gault equation) were also included in the clinical laboratory tests for safety assessment.
In both studies, the safety analysis was descriptive and focused on changes from baseline and treatment‐emergent findings.

[1] = part 1, 50 mg QD, 18–50 years (n = 6)
[2] = part 1, 50 mg QD, 65–74 years (n = 6)
[3] = part 1, 50 mg QD, ≥ 75 years (n = 6)
[4] = part 2, 250 mg loading dose + 50 mg QD, 65–74 years (n = 8)

## O=c1nc(OC[C@@H]2COCCO2)cc2n1CCc1cc(C#CC3CC3)ccc1-2 [GLPG1205, 9‐cyclopropylethynyl‐2‐((S)‐1‐[1,4]dioxan‐2‐ylmethoxy)‐6,7‐dihydropyrimido[6,1‐a]isoquinolin‐4‐one]
[1]
  Any TEAE: 5 (83.3) number of subjects (%)
  Diarrhea (TEAE): 0 number of subjects (%)
  Erectile dysfunction (TEAE): 2 (33.3) number of subjects (%)
  Gastrointestinal disorders (TEAE): 2 (33.3) number of subjects (%)
  Headache (TEAE): 3 (50.0) number of subjects (%)
  Infections and infestations (TEAE): 1 (16.7) number of subjects (%)
  Nasopharyngitis (TEAE): 1 (16.7) number of subjects (%)
  Nausea (TEAE): 2 (33.3) number of subjects (%)
  Nervous system disorders (TEAE): 3 (50.0) number of subjects (%)
  Reproductive system and breast disorders (TEAE): 2 (33.3) number of subjects (%)
  Vomiting (TEAE): 0 number of subjects (%)
[2]
  Any TEAE: 5 (83.3) number of subjects (%)
  Diarrhea (TEAE): 0 number of subjects (%)
  Erectile dysfunction (TEAE): 0 number of subjects (%)
  Gastrointestinal disorders (TEAE): 1 (16.7) number of subjects (%)
  Headache (TEAE): 3 (50.0) number of subjects (%)
  Infections and infestations (TEAE): 3 (50.0) number of subjects (%)
  Nasopharyngitis (TEAE): 2 (33.3) number of subjects (%)
  Nausea (TEAE): 0 number of subjects (%)
  Nervous system disorders (TEAE): 4 (66.7) number of subjects (%)
  Reproductive system and breast disorders (TEAE): 0 number of subjects (%)
  Vomiting (TEAE): 0 number of subjects (%)
[3]
  Any TEAE: 3 (50.0) number of subjects (%)
  Diarrhea (TEAE): 0 number of subjects (%)
  Erectile dysfunction (TEAE): 0 number of subjects (%)
  Gastrointestinal disorders (TEAE): 1 (16.7) number of subjects (%)
  Headache (TEAE): 0 number of subjects (%)
  Infections and infestations (TEAE): 0 number of subjects (%)
  Nasopharyngitis (TEAE): 0 number of subjects (%)
  Nausea (TEAE): 0 number of subjects (%)
  Nervous system disorders (TEAE): 0 number of subjects (%)
  Polyuria (TEAE): 2 (33.3) 2 (33.3) number of subjects (%)
  Renal and urinary disorders (TEAE): 2 (33.3) 2 (33.3) number of subjects (%)
  Reproductive system and breast disorders (TEAE): 0 number of subjects (%)
  Vomiting (TEAE): 0 number of subjects (%)
[4]
  Any TEAE: 7 (87.5) number of subjects (%)
  Diarrhea (TEAE): 1 (12.5) number of subjects (%)
  Erectile dysfunction (TEAE): 0 number of subjects (%)
  Gastrointestinal disorders (TEAE): 4 (50.0) number of subjects (%)
  Headache (TEAE): 1 (12.5) number of subjects (%)
  Infections and infestations (TEAE): 0 number of subjects (%)
  Nasopharyngitis (TEAE): 0 number of subjects (%)
  Nausea (TEAE): 3 (37.5) number of subjects (%)
  Nervous system disorders (TEAE): 1 (12.5) number of subjects (%)
  Polyuria (TEAE): 0 number of subjects (%)
  Renal and urinary disorders (TEAE): 0 number of subjects (%)
  Reproductive system and breast disorders (TEAE): 0 number of subjects (%)
  Vomiting (TEAE): 2 (25.0) number of subjects (%)
Part 2, loading dose
  nausea of mild intensity: 2 n
  nausea of moderate intensity: 1 n
